Data reported in patent US20230172849A1, “INHALED STATINS FOR TREATMENT OF VIRAL RESPIRATORY DISEASES” (priority 2020, published 2023).
Entries after “also recorded” stand apart in the source; their conditions may differ. Like-named read-outs stand apart in the source and are kept apart here.

Experiments:
[1] = molecular target: SARS-CoV-2 Spike S1 (RBD) (Severe acute respiratory syndrome coronavirus 2, UniProt P0DTC2); assay: biochemical; type: binding
SARS-CoV-2 [2] = type: cell-based
Calu-3 cells = Calu-3 cells or Vero cells
[3] = system: SARS-CoV-2-induced cytokine and chemokine production; type: cell-based; settings: Calu-3 cells; Cases A-C
SARS-CoV-2 [4] = assay: SARS-CoV-2 viral load by RT-qPCR in Calu-3 supernatant; type: cell-based
SARS-CoV-2 [5] = assay: hamster model of SARS-CoV-2 infection, intranasally inhaled treatment; type: in vivo
SARS-CoV-2 [6] = assay: combination therapy, viral load by RT-PCR (ORF1ab gene) in Calu-3 cells; type: cell-based; parameters: key to enhanced decrease of viral load, combination vs two single agents: Each combination that showed an enhanced decrease of viral load as compared with the two single agents is denoted by “E”; Combinations that showed a slight trend towards an enhanced decrease of viral load as compared with the two single agents is denoted by “(e)”; —

## O=C([O-])C[C@H](O)C[C@H](O)/C=C/c1c(C2CC2)nc2ccccc2c1-c1ccc(F)cc1.O=C([O-])C[C@H](O)C[C@H](O)/C=C/c1c(C2CC2)nc2ccccc2c1-c1ccc(F)cc1.[Ca+2] [INS103, Pitavastatin Calcium]
[1]; MST binding assay
  binding to SARS-COV-2 S-protein (in words): bind with SARS-COV-2 S-protein at nanomolar (nM) concentrations
[1]; Table 1, MST, 25 nM labelled SARS-CoV-2 S1, read-out: Affinity
  Kd: 678 to 1000 nM
[1]; Table 1, binding to SARS-CoV-2 S1
  Remarks: Good binding
[1]; Table 1, signal to noise ratio of MST binding
  S/N: 14.4-17.3
[1]; Table 2, read-out: Affinity (nM) of binding to SARS-COV2 Spike protein
  Kd: 678 to 1000 nM
SARS-CoV-2 [2]; Calu-3 cells
  SARS-CoV-2-induced loss of cell viability in Calu-3 cells (overall conclusion): inhibited SARS-CoV-2-induced loss of cell viability
SARS-CoV-2 [2]; Case A: compound added 1 h after infection, 72 h contact
  protection against virus-induced loss of cell viability: dose-dependent protection
SARS-CoV-2 [2]; Case A: compound added 1 h after infection, 72 h contact, 0.2 uM
  Average (percent cell viability): 4.83%
SARS-CoV-2 [2]; Case A: compound added 1 h after infection, 72 h contact, 1 uM
  Average (percent cell viability): 9.66%
SARS-CoV-2 [2]; Case A: compound added 1 h after infection, 72 h contact, 5 uM
  Average (percent cell viability): 17.37%
SARS-CoV-2 [2]; Case B: compound added 24 h after infection, 48 h contact, 0.2 uM
  Average (percent cell viability): 0.5243%
SARS-CoV-2 [2]; Case B: compound added 24 h after infection, 48 h contact, 1 uM
  Average (percent cell viability): 1.724%
SARS-CoV-2 [2]; Case B: compound added 24 h after infection, 48 h contact, 5 uM
  Average (percent cell viability): −3.025%
SARS-CoV-2 [2]; Case C: compound added 48 h after infection, 24 h contact, 0.2 uM
  Average (percent cell viability): 1.847%
SARS-CoV-2 [2]; Case C: compound added 48 h after infection, 24 h contact, 1 uM
  Average (percent cell viability): −1.192%
SARS-CoV-2 [2]; Case C: compound added 48 h after infection, 24 h contact, 5 uM
  Average (percent cell viability): −1.208%
SARS-CoV-2 [2]; Case D: pre-treated 6 h, then infected 72 h, 0.2 uM
  Average (percent cell viability): 34.83%
SARS-CoV-2 [2]; Case D: pre-treated 6 h, then infected 72 h, 1 uM
  Average (percent cell viability): 32.21%
SARS-CoV-2 [2]; Case D: pre-treated 6 h, then infected 72 h, 5 uM
  Average (percent cell viability): 28.3%
SARS-CoV-2 [2]; Case D: pre-treated 6 hours, then infected 72 hours
  protection against virus-induced loss of cell viability: dose-independent protection
SARS-CoV-2 [2]; Case D: pre-treated 6 hours, then infected 72 hours, listed as INS-103
  protection against virus-induced loss of cell viability: inhibit SARS-CoV-2-induced loss of cell viability
SARS-CoV-2 [2]; Case E: pre-treated 24 h, then infected 72 h, 0.2 uM
  Average (percent cell viability): −3.00%
SARS-CoV-2 [2]; Case E: pre-treated 24 h, then infected 72 h, 1.0 uM
  Average (percent cell viability): −0.20%
SARS-CoV-2 [2]; Case E: pre-treated 24 h, then infected 72 h, 5.0 uM
  Average (percent cell viability): 46.71%
SARS-CoV-2 [2]; Case E: pre-treated 24 hours, then infected 72 hours, high and medium doses of INS102, high dose of INS103
  protection against virus-induced loss of cell viability: dose-dependent protection
SARS-CoV-2 [2]; Case F: 1 hour, then virus 72 hours, high dose of INS102, all doses of INS103
  anti-viral protection (cell viability): dose-dependent anti-viral protection
SARS-CoV-2 [2]; Case F: compound 1 h before infection (coinc 1 h), then virus 72 h, 0.2 uM
  Average (percent cell viability): 9.881%
SARS-CoV-2 [2]; Case F: compound 1 h before infection (coinc 1 h), then virus 72 h, 1 uM
  Average (percent cell viability): 15.82%
SARS-CoV-2 [2]; Case F: compound 1 h before infection (coinc 1 h), then virus 72 h, 5 uM
  Average (percent cell viability): 19.96%
Calu-3 cells
  cytotoxicity: not cytotoxic
[3]
  SARS-CoV-2-induced cytokine and chemokine production: inhibited
SARS-CoV-2 [4]; Cases A-C, 5, 1, 0.2 μM
  SARS-CoV-2 viral load: dose-dependently reduced viral load
SARS-CoV-2 [4]; high dose 5 uM
  SARS-CoV-2 viral load: reduced SARS-CoV-2 viral load
SARS-CoV-2 [5]; 3 mg/kg i.n., Day 1
  viral titers in throat swabs: reduced viral titers
SARS-CoV-2 [5]; 3 mg/kg i.n., Day 3 post-infection
  viral titer in the nasal swabs and tracheas: reduction of viral titer
SARS-CoV-2 [5]; 3 mg/kg i.n., Day 3 post-infection, R4 samples
  viral titer in lung samples: significant decrease in viral titer
SARS-CoV-2 [5]; 3 mg/kg i.n., day 6, virus-infected controls ˜50%
  percentage of affected lung (inflammation): ~30%
SARS-CoV-2 [5]; 3 mg/kg i.n., days 2 or 3
  viral titers in throat swabs (reduction trend): not observed
SARS-CoV-2 [5]; 3 mg/kg i.n., vs DPBS or control vehicle (DV)
  viral titers from the nasal swabs: trend of reduced viral titers
SARS-CoV-2 [5]; 3 mg/kg i.n., vs controls
  lung inflammation (histopathology): reduction in acute ling inflammation; also recorded: mild/moderate reduction in lung inflammation
SARS-CoV-2 [5]; pitavastatin 3 mg/kg i.n., D-2 to 5, statistical significance at day 4
  weight loss of infected hamsters: less weight loss
SARS-CoV-2 [6]; FIGS. 30, 31, statin and SARS-CoV-2 (MOI 0.01) mixed 1 hour at room temperature, 24 hours post infection
  decrease in viral load, combination with remdesivir or dexamethasone vs monotherapies: enhanced
SARS-CoV-2 [6]; statin 0.2 μM + Dex 0.1 μM
  enhanced decrease of viral load, combination vs two single agents: —
SARS-CoV-2 [6]; statin 0.2 μM + Dex 1 μM
  enhanced decrease of viral load, combination vs two single agents: (e)
SARS-CoV-2 [6]; statin 0.2 μM + Dex 10 μM
  enhanced decrease of viral load, combination vs two single agents: —
SARS-CoV-2 [6]; statin 0.2 μM + Remde 1
  enhanced decrease of viral load, combination vs two single agents: (e)
SARS-CoV-2 [6]; statin 0.2 μM + Remde 10
  enhanced decrease of viral load, combination vs two single agents: (e)
SARS-CoV-2 [6]; statin 0.2 μM + Remde 100
  enhanced decrease of viral load, combination vs two single agents: (e)
SARS-CoV-2 [6]; statin 1 μM + Dex 0.1 μM
  enhanced decrease of viral load, combination vs two single agents: —
SARS-CoV-2 [6]; statin 1 μM + Dex 1 μM
  enhanced decrease of viral load, combination vs two single agents: enhancement in the decrease of viral load and E
SARS-CoV-2 [6]; statin 1 μM + Dex 10 μM
  enhanced decrease of viral load, combination vs two single agents: —
SARS-CoV-2 [6]; statin 1 μM + Remde 1
  enhanced decrease of viral load, combination vs two single agents: —
SARS-CoV-2 [6]; statin 1 μM + Remde 10
  enhanced decrease of viral load, combination vs two single agents: —
SARS-CoV-2 [6]; statin 1 μM + Remde 100
  enhanced decrease of viral load, combination vs two single agents: —
SARS-CoV-2 [6]; statin 5 μM + Dex 0.1 μM
  enhanced decrease of viral load, combination vs two single agents: E
SARS-CoV-2 [6]; statin 5 μM + Dex 1 μM
  enhanced decrease of viral load, combination vs two single agents: —
SARS-CoV-2 [6]; statin 5 μM + Dex 10 μM
  enhanced decrease of viral load, combination vs two single agents: —
SARS-CoV-2 [6]; statin 5 μM + Remde 1
  enhanced decrease of viral load, combination vs two single agents: —
SARS-CoV-2 [6]; statin 5 μM + Remde 10
  enhanced decrease of viral load, combination vs two single agents: —
SARS-CoV-2 [6]; statin 5 μM + Remde 100
  enhanced decrease of viral load, combination vs two single agents: —
